The source of these data is patent publication US20260001888A1, “PYRAZOLOPYRIMIDINE PDE9 INHIBITORS” (Merck Sharp & Dohme LLC, priority 2018, published 2026).

SMILES strings stand for the structures.

Human PDE9 (PDE9A2), sequence (O76083 other isoform, or with tags, fused parts or gaps): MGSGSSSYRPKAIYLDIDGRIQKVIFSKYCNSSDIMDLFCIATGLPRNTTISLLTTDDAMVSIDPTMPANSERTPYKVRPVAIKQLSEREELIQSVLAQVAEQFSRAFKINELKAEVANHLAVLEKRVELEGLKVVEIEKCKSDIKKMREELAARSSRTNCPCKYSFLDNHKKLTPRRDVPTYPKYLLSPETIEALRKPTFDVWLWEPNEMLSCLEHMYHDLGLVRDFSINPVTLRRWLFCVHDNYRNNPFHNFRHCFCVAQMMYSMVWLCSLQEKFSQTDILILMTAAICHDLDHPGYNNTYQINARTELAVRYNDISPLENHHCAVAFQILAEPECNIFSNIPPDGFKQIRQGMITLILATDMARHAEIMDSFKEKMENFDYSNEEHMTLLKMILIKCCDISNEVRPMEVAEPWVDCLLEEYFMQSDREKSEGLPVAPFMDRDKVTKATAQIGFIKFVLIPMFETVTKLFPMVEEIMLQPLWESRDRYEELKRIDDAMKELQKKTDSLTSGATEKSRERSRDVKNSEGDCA

In this assay the target is Human PDE9 (PDE9A2) (Homo sapiens (Human), UniProt O76083). Put plainly: PDE9 IMAP fluorescence polarization (FP) inhibition assay. Format: biochemical. The conditions noted are these: apparent inhibition constant; human PDE9A2, FAM-cGMP substrate 50 nM, room temperature. On the procedure:
The activity of the compounds in accordance with the present invention as PDE9 inhibitors may be readily determined without undue experimentation using a fluorescence polarization (FP) methodology that is well known in the art (Huang, W., et al., J. Biomol Screen, 2002, 7:215).
In a typical experiment the PDE9 inhibitory activity of the compounds of the present invention was determined in accordance with the following experimental method.
Human PDE9 (PDE9A2, GenBank Accession No. NM_001001567), full length with N-terminal GST tag, was purchased from BPS Bioscience. The fluorescence polarization assay for cyclic nucleotide phosphodiesterases was performed using an IMAP® FP kit supplied by Molecular Devices, Sunnyvale, CA (product #R8139). IMAP® technology has been applied previously to phosphodiesterase assays (Huang, W., et al., J. Biomol Screen, 2002, 7:215). Assays were performed at room temperature in 384-well microtiter plates with an incubation volume of 20.2 μL. Solutions of test compounds were prepared in DMSO and serially diluted with DMSO to yield 8 μL of each of 10 solutions differing by 3-fold in concentration, at 32 serial dilutions per plate. 100% inhibition is determined using a known PDE9 inhibitor, such as 1-(2-chlorophenyl)-6-[(2R)-3,3,3-trifluoro-2-methylpropyl]-1,5-dihydro-4H-pyrazolo[3,4-d]pyrimidine-4-one (BAY 73-6691) (Wunder et al, Mol. Pharmacol., 2005, 68 (6): 1775-81), (6-[(3S,4S)-4-methyl-1-(pyrimidin-2-ylmethyl) pyrrolidin-3-yl]-1-(tetrahydro-2H-pyran-4-yl)-1,5-dihydro-4H-pyrazolo[3,4-d]pyrimidin-4-one (PF-04447943) (Wager et al., ACS Chemical Neuroscience, 2010, 1:435-449). 0% of inhibition is determined by using DMSO (1% final concentrations). A Labcyte Echo 555 (Labcyte, Sunnyvale, CA) is used to dispense 200 nL from each well of the titration plate to the 384 well assay plate. Human PDE9A2 membrane preps were diluted to 1 ng/ml. […] PDE9 enzyme mix and compounds were mixed and incubated at room temperature for 30 min. Following which, FAMcGMP substrate was added, shaken and incubated for an additional 60 min at room temperature. The final concentration of human PDE9 membrane preparations were 0.5 ng/ml. The final concentration of FAM-cGMP was 50 nM. After the incubation period, the enzymatic reaction was stopped by addition of binding solution (IMAP-FP, Molecular Devices, comprised of 80% Solution A, 20% Solution B and a 1:600 dilution of binding reagent) to each well. The plates were shaken then incubated at room temperature for 1 h prior to determining the fluorescence polarization (mP) using a Perkin Elmer En Vision™ plate reader (Waltham, MA).
Fluorescence polarization (mP) was calculated from the parallel(S) and perpendicular (P) fluorescence of each sample well and the analogous values for the median control well, containing only substrate (So and Po), using the following equation: […]
Dose-inhibition profiles for each compound were characterized by fitting the mP data to a four-parameter equation given below. The apparent inhibition constant (KI), the maximum inhibition at the low plateau relative to “100% Inhibition Control” (Imax; e.g. 1=>same as this control), the minimum inhibition at the high plateau relative to the “0% Inhibition Control” (Imin, e.g. 0=>same as the no drug control) and the Hill slope (nH) are determined by a non-linear least squares fitting of the mP values as a function of dose of the compound using an in-house software based on the procedures described by Mosser et al., JALA, 2003, 8:54-63, using the following equation: […]
An apparent (Km) for FAM-labeled […] of 150 nM was determined in separate experiments through simultaneous variation of substrate and selected drug concentrations.
`CC(c1ccc(C(F)(F)F)nc1)n1nc(C#N)c2c(=O)[nH]c(N3CCCC3c3ncccn3)nc21` (single isomer, unassigned) [Example 53, 4-oxo-6-(2-pyrimidin-2-ylpyrrolidin-1-yl)-1-[1-[6-(trifluoromethyl)-3-pyridyl]ethyl]-5H-pyrazolo[3,4-d]pyrimidine-3-carbonitrile]: the Ki stood at 207 nM.
The result for `CC(c1ccc(C(F)(F)F)nc1)n1nc(C#N)c2c(=O)[nH]c(N3CCC3c3ncccn3)nc21` (single isomer, unassigned) [Example 47, 4-oxo-6-(2-pyrimidin-2-ylazetidin-1-yl)-1-[1-[6-(trifluoromethyl)-3-pyridyl]ethyl]-5H-pyrazolo[3,4-d]pyrimidine-3-carbonitrile] reads 22.7 nM; that for `CCC(c1ncc(F)cn1)N(C)c1nc2c(c(C#N)nn2C(C)c2ccc(C3CC3)nc2)c(=O)[nH]1` (single isomer, unassigned) [Example 64, 1-[1-(6-cyclopropyl-3-pyridyl)ethyl]-6-[1-(5-fluoropyrimidin-2-yl)propyl-methyl-amino]-4-oxo-5H-pyrazolo[3,4-d]pyrimidine-3-carbonitrile], 11.9 nM.
Consider `CCC(c1ncccn1)N(C)c1nc2c(c(C#N)nn2C(C)c2ccc(C(F)(F)F)cc2)c(=O)[nH]1` (single isomer, unassigned) [Example 15, 6-[methyl(1-pyrimidin-2-ylpropyl)amino]-4-oxo-1-[1-[4-(trifluoromethyl)phenyl]ethyl]-5H-pyrazolo[3,4-d]pyrimidine-3-carbonitrile], for which the Ki is 2.82 nM.
The result for `CC(c1ccc(C(F)(F)F)nc1)n1nc(C#N)c2c(=O)[nH]c(N(C)C(c3ncccn3)C3CCC3)nc21` (single isomer, unassigned) [Example 31, 6-[[cyclobutyl(pyrimidin-2-yl)methyl]-methyl-amino]-4-oxo-1-[1-[6-(trifluoromethyl)-3-pyridyl]ethyl]-5H-pyrazolo[3,4-a]pyrimidine-3-carbonitrile] reads 1.2 nM; that for `CCC(c1ncc(F)cn1)N(C)c1nc2c(c(C#N)nn2C(C)C2CCOCC2)c(=O)[nH]1` (single isomer, unassigned) [Example 39, 6-[1-(5-fluoropyrimidin-2-yl)propyl-methyl-amino]-4-oxo-1-(1-tetrahydropyran-4-ylethyl)-5H-pyrazolo[3,4-d]pyrimidine-3-carbonitrile], 0.17 nM; that for `CC(c1ccc(C(F)(F)F)nc1)n1nc(C#N)c2c(=O)[nH]c(N(C)C(c3ncccn3)C3CC3)nc21` (single isomer, unassigned) [Example 25, 6-[[cyclopropyl(pyrimidin-2-yl)methyl]-methyl-amino]-4-oxo-1-[1-[6-(trifluoromethyl)-3-pyridyl]ethyl]-5H-pyrazolo[3,4-d]pyrimidine-3-carbonitrile], 4.08 nM.
Next, `CC(c1ccc(C(F)(F)F)nc1)n1nc(C#N)c2c(=O)[nH]c(N3CCC3c3ncccn3)nc21` (single isomer, unassigned) [Example 45, 4-oxo-6-(2-pyrimidin-2-ylazetidin-1-yl)-1-[1-[6-(trifluoromethyl)-3-pyridyl]ethyl]-5H-pyrazolo[3,4-d]pyrimidine-3-carbonitrile]: 0.23 nM; `CCC(c1ncccn1)N(C)c1nc2c(c(C#N)nn2C(C)c2ccc(C(F)(F)F)nc2)c(=O)[nH]1` (single isomer, unassigned) [Example 11, 6-[methyl(1-pyrimidin-2-ylpropyl)amino]-4-oxo-1-[1-[6-(trifluoromethyl)-3-pyridyl]ethyl]-5H-pyrazolo[3,4-d]pyrimidine-3-carbonitrile]: 24.5 nM.
As for `CC(c1ccc(C(F)(F)F)nc1)n1nc(C#N)c2c(=O)[nH]c(N3CCCC3c3ncccn3)nc21` (single isomer, unassigned) [Example 56, 4-oxo-6-(2-pyrimidin-2-ylpyrrolidin-1-yl)-1-[1-[6-(trifluoromethyl)-3-pyridyl]ethyl]-5H-pyrazolo[3,4-d]pyrimidine-3-carbonitrile], the Ki amounted to 289 nM.
With `CCC(Nc1nc2c(c(C#N)nn2C(C)c2ccc(C(F)(F)F)nc2)c(=O)[nH]1)c1ncccn1` (single isomer, unassigned) [Example 73, 4-Oxo-6-((1-(pyrimidin-2-yl)propyl)amino)-1-(1-(6-(trifluoromethyl)pyridin-3-yl)ethyl)-4,5-dihydro-1H-pyrazolo[3,4-d]pyrimidine-3-carbonitrile], the Ki was 0.25 nM.
The result for `CCC(c1ncc(F)cn1)N(C)c1nc2c(c(C#N)nn2C(C)c2ccc(C3CC3)cc2)c(=O)[nH]1` (single isomer, unassigned) [Example 69, 1-[1-(4-cyclopropylphenyl)ethyl]-6-[1-(5-fluoropyrimidin-2-yl)propyl-methyl-amino]-4-oxo-5H-pyrazolo[3,4-d]pyrimidine-3-carbonitrile] reads 14.9 nM; that for `C=CCCC(c1ncccn1)N(C)c1nc2c(c(C#N)nn2C(C)c2ccc(C(F)(F)F)nc2)c(=O)[nH]1` (single isomer, unassigned) [Example 44, 6-[methyl(1-pyrimidin-2-ylpent-4-enyl)amino]-4-oxo-1-[1-[6-(trifluoromethyl)-3-pyridyl]ethyl]-5H-pyrazolo[3,4-d]pyrimidine-3-carbonitrile], 19.6 nM.
The result for `CCC(c1ncc(C(F)F)cn1)N(C)c1nc2c(c(C#N)nn2C(C)c2ccc(C(F)(F)F)nc2)c(=O)[nH]1` (single isomer, unassigned) [Example 19, 6-[1-[5-(difluoromethyl)pyrimidin-2-yl]propyl-methyl-amino]-4-oxo-1-[1-[6-(trifluoromethyl)-3-pyridyl]ethyl]-5H-pyrazolo[3,4-d]pyrimidine-3-carbonitrile] reads 7.36 nM; that for `CCC(c1ncccn1)N(C)c1nc2c(c(C#N)nn2C(C)c2ccc(C(F)(F)F)nc2)c(=O)[nH]1` (single isomer, unassigned) [Example 9, 6-[methyl(1-pyrimidin-2-ylpropyl)amino]-4-oxo-1-[1-[6-(trifluoromethyl)-3-pyridyl]ethyl]-5H-pyrazolo[3,4-d]pyrimidine-3-carbonitrile], 0.14 nM; that for `CC(c1ccc(C(F)(F)F)nc1)n1nc(C#N)c2c(=O)[nH]c(N3CCC3c3ccc(F)cc3)nc21` (single isomer, unassigned) [Example 52, 6-[2-(4-fluorophenyl)azetidin-1-yl]-4-oxo-1-[1-[6-(trifluoromethyl)-3-pyridyl]ethyl]-5H-pyrazolo[3,4-d]pyrimidine-3-carbonitrile], 6.7 nM.
The result for `CCC(Cc1nc2c(c(C#N)nn2C(C)c2ccc(C(F)(F)F)nc2)c(=O)[nH]1)c1ncccn1` (single isomer, unassigned) [Example 89, 4-oxo-6-(2-(pyrimidin-2-yl)butyl)-1-(1-(6-(trifluoromethyl)pyridin-3-yl)ethyl)-4,5-dihydro-1H-pyrazolo[3,4-d]pyrimidine-3-carbonitrile] reads 0.24 nM.
As to `CC(c1ccc(C(F)(F)F)nc1)n1nc(C#N)c2c(=O)[nH]c(N3CCC3c3ccc(F)cc3)nc21` (single isomer, unassigned) [Example 51, 6-[2-(4-fluorophenyl)azetidin-1-yl]-4-oxo-1-[1-[6-(trifluoromethyl)-3-pyridyl]ethyl]-5H-pyrazolo[3,4-d]pyrimidine-3-carbonitrile], the Ki amounted to 7.41 nM.
The result for `CC(c1ccc(C(F)(F)F)nc1)n1nc(C#N)c2c(=O)[nH]c(N(C)C(c3ncccn3)C3CC3)nc21` (single isomer, unassigned) [Example 27, 6-[[cyclopropyl(pyrimidin-2-yl)methyl]-methyl-amino]-4-oxo-1-[1-[6-(trifluoromethyl)-3-pyridyl]ethyl]-5H-pyrazolo[3,4-d]pyrimidine-3-carbonitrile] reads 6.67 nM.
